Assay results: ChEMBL document CHEMBL6087386, “Radioprotective effectiveness of a novel delta-tocotrienol prodrug on mouse hematopoietic system against 60Co gamma-ray irradiation through inducing granulocyte-colony stimulating factor production” (Eur J Med Chem, 2024)
Activity calls are given as the source filed them. No cut-off for these calls is given here.

Experiments:
Mus musculus [1] = test: Induction of G-CSF production in C57BL/6J mouse model at 100 mg/kg, sc measured for 24 hrs by ELISA analysis; type: functional, organism-based
Mus musculus [2] = test: Induction of G-CSF production in sc dosed C57BL/6J mouse model measured for 24 hrs by ELISA analysis; type: functional, organism-based; conditions: dose 12.5-200 mg/kg
Mus musculus [3] = test: Induction of G-CSF production in C57BL/6J mouse model at 50 mg/kg, sc measured for 24 hrs by ELISA analysis; type: functional, organism-based
Mus musculus [4] = test: Induction of G-CSF production in C57BL/6J mouse model at 12.5 to 25 mg/kg, sc measured for 24 hrs by ELISA analysis; type: functional, organism-based; conditions: dose 12.5-25 mg/kg
Mus musculus [5] = test: Induction of G-CSF production in C57BL/6J mouse model at 100 to 200 mg/kg, sc measured for 24 hrs by ELISA analysis; type: functional, organism-based; conditions: dose 100-200 mg/kg
Mus musculus [6] = test: Radioprotective activity in C57BL/6J mouse assessed as survival rate at 100 mg/kg, sc preincubated with compound for 24 hrs followed by total body irradiation with 8.5 Gy and measured after 20 days by Kaplan-meier plot analysis; type: functional; conditions: light or radiation study, 504 h, time 21 day
Mus musculus [7] = test: Radioprotective activity in C57BL/6J mouse assessed as survival rate at 100 mg/kg, sc preincubated with compound for 24 hrs followed by total body irradiation with 9.5 Gy and measured after 30 days by Kaplan-meier plot analysis; type: functional; conditions: light or radiation study, 744 h, time 31 day
[8] = Tmax in ICR mouse at 100 mg/kg, iv measured upto 24 hrs by LC-MS/MS analysis; type: ADME, organism-based; conditions: in vivo
[9] = Tmax in ICR mouse at 100 mg/kg, sc measured upto 24 hrs by LC-MS/MS analysis; type: ADME, organism-based; conditions: in vivo
[10] = Cmax in ICR mouse at 100 mg/kg, iv measured upto 24 hrs by LC-MS/MS analysis; type: ADME, organism-based; conditions: in vivo
[11] = Cmax in ICR mouse at 100 mg/kg, sc measured upto 24 hrs by LC-MS/MS analysis; type: ADME, organism-based; conditions: in vivo
[12] = Half life in ICR mouse at 100 mg/kg, iv measured upto 24 hrs by LC-MS/MS analysis; type: ADME, organism-based; conditions: in vivo
[13] = Clearance in ICR mouse at 100 mg/kg, iv measured upto 24 hrs by LC-MS/MS analysis; type: ADME, organism-based; conditions: in vivo
[14] = MRT (0 to t) in ICR mouse at 100 mg/kg, iv measured upto 24 hrs by LC-MS/MS analysis; type: ADME, organism-based; conditions: in vivo
[15] = MRT (0 to t) in ICR mouse at 100 mg/kg, sc measured upto 24 hrs by LC-MS/MS analysis; type: ADME, organism-based; conditions: in vivo
[16] = MRT (0 to infinity) in ICR mouse at 100 mg/kg, iv measured upto 24 hrs by LC-MS/MS analysis; type: ADME, organism-based; conditions: in vivo
[17] = Volume of distribution at steady state in ICR mouse at 100 mg/kg, iv measured upto 24 hrs by LC-MS/MS analysis; type: ADME, organism-based; conditions: in vivo
[18] = Bioavailability in ICR mouse at 100 mg/kg, sc measured upto 24 hrs by LC-MS/MS analysis; type: ADME, organism-based; conditions: in vivo
Mus musculus [19] = test: Radioprotective activity in C57BL/6J mouse assessed as increase in WBC count at 100 mg/kg, sc preincubated with compound for 24 hrs followed by total body irradiation with 6.5 Gy and measured after 30 days; type: functional, organism-based; conditions: time 31.0 day
Mus musculus [20] = test: Radioprotective activity in C57BL/6J mouse assessed as increase in neutrophils at 100 mg/kg, sc preincubated with compound for 24 hrs followed by total body irradiation with 6.5 Gy and measured after 30 days; type: functional, organism-based; conditions: time 31.0 day
Mus musculus [21] = test: Radioprotective activity in C57BL/6J mouse assessed as increase in platelets count at 100 mg/kg, sc preincubated with compound for 24 hrs followed by total body irradiation with 6.5 Gy and measured after 30 days; type: functional, organism-based; conditions: time 31.0 day
Mus musculus [22] = test: Radioprotective activity in C57BL/6J mouse assessed as increase in RBC count at 100 mg/kg, sc preincubated with compound for 24 hrs followed by total body irradiation with 6.5 Gy and measured after 30 days; type: functional, organism-based; conditions: time 31.0 day
Mus musculus [23] = test: Radioprotective activity in C57BL/6J mouse assessed as increase in neutrophils at 100 mg/kg, sc preincubated with compound for 24 hrs followed by total body irradiation with 6.5 Gy and measured on day 7; type: functional, organism-based; conditions: time 8.0 day
Mus musculus [24] = test: Radioprotective activity in C57BL/6J mouse assessed as increase in platelet count at 100 mg/kg, sc preincubated with compound for 24 hrs followed by total body irradiation with 6.5 Gy and measured on day 10; type: functional, organism-based; conditions: time 11.0 day
Mus musculus [25] = test: Radioprotective activity in C57BL/6J mouse assessed as increase in RBC count at 100 mg/kg, sc preincubated with compound for 24 hrs followed by total body irradiation with 6.5 Gy and measured on day 14; type: functional, organism-based; conditions: time 15.0 day
Mus musculus [26] = test: Radioprotective activity in C57BL/6J mouse assessed as increase in percentage of LK cells at 100 mg/kg, sc preincubated with compound for 24 hrs followed by total body irradiation with 6.5 Gy and measured after 30 days; type: functional, organism-based; conditions: time 31.0 day
Mus musculus [27] = test: Radioprotective activity in C57BL/6J mouse assessed as increase in percentage of LSK cells at 100 mg/kg, sc preincubated with compound for 24 hrs followed by total body irradiation with 6.5 Gy and measured after 30 days; type: functional, organism-based; conditions: time 31.0 day
Mus musculus [28] = test: Radioprotective activity in C57BL/6J mouse assessed as increase in long term hematopoietic stem cell frequency in LSK compartment at 100 mg/kg, sc preincubated with compound for 24 hrs followed by total body irradiation with 6.5 Gy and measured after 30 days; type: functional, organism-based; conditions: time 31.0 day
Mus musculus [29] = test: Radioprotective activity in C57BL/6J mouse assessed as increase in multipotent progenitor frequency in LSK compartment at 100 mg/kg, sc preincubated with compound for 24 hrs followed by total body irradiation with 6.5 Gy and measured after 30 days; type: functional, organism-based; conditions: time 31.0 day
Mus musculus [30] = test: Radioprotective activity in C57BL/6J mouse assessed as effect on LT-HSC number at 100 mg/kg, sc preincubated with compound for 24 hrs followed by total body irradiation with 6.5 Gy and measured after 30 days; type: functional, organism-based; conditions: time 31.0 day
Mus musculus [31] = test: Radioprotective activity in C57BL/6J mouse assessed as increase in ST-HSC number at 100 mg/kg, sc preincubated with compound for 24 hrs followed by total body irradiation with 6.5 Gy and measured after 30 days; type: functional, organism-based; conditions: time 31.0 day
Mus musculus [32] = test: Radioprotective activity in C57BL/6J mouse assessed as increase in MPP number at 100 mg/kg, sc preincubated with compound for 24 hrs followed by total body irradiation with 6.5 Gy and measured after 30 days; type: functional, organism-based; conditions: time 31.0 day
Mus musculus [33] = test: Radioprotective activity in C57BL/6J mouse assessed as splenomegaly at 100 mg/kg, sc preincubated with compound for 24 hrs followed by total body irradiation with 6.5 Gy and measured after 10 days; type: functional, organism-based; conditions: time 11.0 day
Mus musculus [34] = test: Radioprotective activity in C57BL/6J mouse assessed as increase in spleen coefficient at 100 mg/kg, sc preincubated with compound for 24 hrs followed by total body irradiation with 6.5 Gy and measured after 10 days; type: functional, organism-based; conditions: time 11.0 day
Mus musculus [35] = test: Radioprotective activity in C57BL/6J mouse assessed as fold increase in total number of splenic nucleated cells at 100 mg/kg, sc preincubated with compound for 24 hrs followed by total body irradiation with 6.5 Gy and measured after 10 days; type: functional; conditions: time 11 day
Mus musculus [36] = test: Radioprotective activity in C57BL/6J mouse assessed as effect on splenic LT-HSCs number at 100 mg/kg, sc preincubated with compound for 24 hrs followed by total body irradiation with 6.5 Gy and measured after 10 days; type: functional, organism-based; conditions: time 11.0 day
Mus musculus [37] = test: Radioprotective activity in C57BL/6J mouse assessed as survival rate at 100 mg/kg, sc preincubated with compound for 24 hrs followed by total body irradiation with 8.5 Gy and measured after 30 days by Kaplan-meier plot analysis; type: functional; conditions: Mus musculus, C57BL/6J, light or radiation study, 744 h, time 31 day
Mus musculus [38] = test: Radioprotective activity in C57BL/6J mouse assessed as […] in survival rate at 100 mg/kg, sc preincubated with compound for 24 hrs followed by total body irradiation with 9.5 Gy and measured after 30 days by Kaplan-meier plot analysis; type: functional, organism-based; conditions: time 31.0 day
[39] = Stability in C57BL/6J mouse whole blood assessed as half-life; type: ADME, tissue-based
[40] = Stability in C57BL/6J mouse plasma assessed as half-life; type: ADME, cell-free
[41] = Stability in […] human plasma assessed as half-life; type: ADME, cell-free
[42] = Drug concentration in C57BL/6J mouse plasma at 100 mg/kg, sc measured after 24 hrs; type: ADME, organism-based; conditions: in vivo
Mus musculus [43] = test: Radioprotective activity in C57BL/6J mouse assessed as increase in G-CSF production in serum at 100 mg/kg, sc; type: functional, organism-based; conditions: time 24.0 hrs
Mus musculus [44] = test: Radioprotective activity in C57BL/6J mouse assessed as increase in G-CSF production in serum at 100 mg/kg, sc measured for 72 hrs; type: functional, organism-based
Mus musculus [45] = test: Radioprotective activity in C57BL/6J mouse assessed as increase in G-CSF production in serum at 100 mg/kg, sc measured for 6 to 24 hrs; type: functional, organism-based; conditions: time 6-24 hrs
Mus musculus [46] = test: Radioprotective activity in C57BL/6J mouse assessed as increase in number of total bone marrow cells at 100 mg/kg, sc preincubated with compound for 24 hrs followed by total body irradiation with 6.5 Gy and measured after 30 days; type: functional, organism-based; conditions: time 31.0 day

## CC(C)=CCC/C(C)=C/CC/C(C)=C/CC[C@]1(C)CCc2cc(O)cc(C)c2O1 [DELTA-TOCOTRIENOL]
Mus musculus [1]
  Activity: Active
Mus musculus [2]
  Activity: Dose-dependent-effect
Mus musculus [3]
  Activity: Active
Mus musculus [4]
  Activity: inactive
Mus musculus [5]
  Activity: Active
Mus musculus [6]
  survival at 100 mg/kg: 70%
Mus musculus [7]
  survival at 100 mg/kg: 60%
[8]
  Tmax: 4.8 min
[9]
  Tmax: 12 h
[10]
  Cmax: 1.11 ng/mL
[11]
  Cmax: 4.95 ng/mL
[12]
  half-life: 4.43 h
[13]
  CL: 4.4143 mL/min/kg
[14]
  MRT last at 24 h: 1.46 h
[15]
  MRT last at 24 h: 13.9 h
[16]; ICR
  MRT inf: 1.63 h
[17]; ICR, read-out: Vdss
  Vd: 0.437 L/kg
[18]
  F: 2.02%
Mus musculus [19]
  Activity: Active
Mus musculus [20]
  Activity: Active
Mus musculus [21]
  Activity: Active
Mus musculus [22]
  Activity: Active
Mus musculus [23]
  Activity: Active
Mus musculus [24]
  Activity: Active
Mus musculus [25]
  Activity: Active
Mus musculus [26]
  Activity: Active
Mus musculus [27]
  Activity: Active
Mus musculus [28]
  Activity: Active
Mus musculus [29]
  Activity: Active
Mus musculus [30]
  Activity: inactive
Mus musculus [31]
  Activity: Active
Mus musculus [32]
  Activity: Active
Mus musculus [33]
  Activity: Active
Mus musculus [34]
  Activity: Active
Mus musculus [35]
  fold change (FC): ~2.5
Mus musculus [36]
  Activity: Active

## CC(C)=CCC/C(C)=C/CC/C(C)=C/CC[C@]1(C)CCc2cc(OC(=O)CCC(=O)O)cc(C)c2O1
Mus musculus [1]
  Activity: Active
Mus musculus [6]
  survival at 100 mg/kg: 70%
Mus musculus [37]
  survival at 100 mg/kg: 90%
Mus musculus [38]
  Activity: inactive
Mus musculus [7]
  survival at 100 mg/kg: 90%
[39]
  half-life: 9.3 min
[40]
  half-life: 3.73 h
[41]
  half-life: 1.92 h
[8]
  Tmax: 4.98 min
[9]
  Tmax: 0.083 h
[10]
  Cmax: 5.15 ng/mL
[11]
  Cmax: 2.02 ng/mL
[12]
  half-life: 10.4 h
[13]
  CL: 3.7553 mL/min/kg
[14]
  MRT last at 24 h: 1.36 h
[15]
  MRT last at 24 h: 11.9 h
[16]; iv, 100 mg/kg, 24 h
  MRT: 3.47 h
[17]; iv, 100 mg/kg, 24 h
  Vdss: 0.33658 L/kg
[18]
  F: 13.86%
[42]
  Drug uptake: Active
Mus musculus [43]
  Activity: Time-dependent-effect
Mus musculus [44]
  Activity: Active
Mus musculus [45]
  Activity: Active
Mus musculus [19]
  Activity: Active
Mus musculus [20]
  Activity: Active
Mus musculus [21]
  Activity: Active
Mus musculus [22]
  Activity: Active
Mus musculus [23]
  Activity: Active
Mus musculus [24]
  Activity: Active
Mus musculus [25]
  Activity: Active
Mus musculus [46]
  Activity: Active
Mus musculus [26]
  Activity: Active
Mus musculus [27]
  Activity: Active
Mus musculus [28]
  Activity: Active
Mus musculus [29]
  Activity: Active
Mus musculus [30]
  Activity: inactive
Mus musculus [31]
  Activity: Active
Mus musculus [32]
  Activity: Active
Mus musculus [33]
  Activity: Active
Mus musculus [34]
  Activity: Active
Mus musculus [35]
  fold change (FC): ~2.5
Mus musculus [36]
  Activity: Active
